Measured values from BindingDB's records for doi:10.1016/j.bmcl.2010.10.018 (Merck Frosst Centre For Therapeutic Research, 2010).
pIC50: −log10 of the molar value.

Experiment: Antagonist activity at TP receptor in human platelet assessed as thromboxane A2- induced platelet aggregation

- pIC50: 4.71
SMILES: C[C@@H](c1ccc(C(F)(F)F)cc1)n1c2c(c3cc(F)cc(S(C)(=O)=O)c31)CCC[C@@H]2CC(=O)O [2-((R)-6-fluoro-8-(methylsulfonyl)-9-((S)-1-(4-(trifluoromethyl)phenyl)ethyl)-2,3,4,9-tetrahydro-1H-carbazol-1-yl)acetic acid]
